We go through three compounds from US20130178483A1, “Methods and Compositions for Inhibition of Bone Resorption” (Pharmacyclics, Inc., priority 2011, published 2013).

For data set [1] the following is noted: 24 h post dose.
The subject of data set [2] is BCR-activated calcium flux in Ramos cells. As to the kind of experiment: BCR-induced calcium flux assay in anti-IgM stimulated Ramos cells. The settings on record: Homo sapiens, read-out: Ramos Cell Ca Flux IC50 (nM). (In general: A change in cytosolic calcium serves as a functional read-out for many receptors and channels.)
Data set [3] deals with human monocyte derived osteoclasts. As to the kind of experiment: Human monocyte derived osteoclastogenesis (M-CSF/RANKL), TRAP and actin staining. In kind it is cell-based. The source says: Further, as depicted in FIG. 18, and FIG. 19, the BTK inhibitors described herein inhibit RANKL induced Btk, PLC-g, Erk and NF-kB activation of osteoclasts derived from human monocytes and murine RAW cells.
We confirmed by immunoblotting that activation of Btk mediates osteoclastogenesis induced by M-CSF and RANKL in CD14+ OC. precursor cells. Phosphorylation of Btk and its downstream PLCγ2 was induced by M-CSF/RANKL in CD14+ monocytes from human donors and mouse RAW 264.7 cells (FIG. 20A). […] At the end of 2-week culture of M-CSF/RANKL-stimulated normal donor monocytes (donor number>4) in plastic tissue culture plates, we observed a significant reduction in multinucleated mature Osteoclast (OC) numbers (TRAP+, >3 nuclei and >50 μm per OC cell, p<0.01), as well as irregular TRAP staining pattern of multinucleated OC influenced by the BtK inhibitor, in a dose-dependent fashion (FIG. 20C-E). To further assess the effects of PCI-32765 on osteoclastogenesis, OC precursor cells from human donors were cultured on glass cover slips, followed by immunofluorescence staining for actin cytoskeleton and pit formation assay for bone resorption activity. […] Most importantly, the Btk inhibitors described herein profoundly diminished bone erosion area formed by OCs cultured on dentine slices in pit formation assays, with or without dexamethasone (FIG. 21D).

Data set [4] concerns INA-6 MM cells in implanted human bone. As to the kind of experiment: SCID-hu model of human multiple myeloma bone disease. The settings on record: 12 mg/kg, vs vehicle control. In kind it is in vivo, SCID-hu mice. The text has this: FIG. 22A-22F show inhibition of multiple myeloma (MM) cell growth and MM-induced bone lysis in a murine model of human MM by administration of a Btk inhibitor described herein. […] Tissue slides were stained with H&E and immunohistochemically analyzed for CD138 (MM), TRAP(OC), and ALP (OB). Original magnification, ×200 except for ALP (×400). […] Effects of Btk inhibitor treatment were also quantitated in the left (mouse L) and right (mouse R) normal mouse extremities (FIG. 22F)
Btk inhibition by the compounds described herein and suppression of MM cell growth and […] were studied in vivo in a mouse model of MM bone disease, the SCID-hu model (FIG. 22A). MM cell growth was quantitated by measuring soluble IL6R (sIL6R) secreted by INA-6 MM cells in murine blood, and mice were treated with a compound of Formula (A), (B), (C), or (D) following first detection of tumor growth. […] Histologic analysis and immunohistochemistry for CD138 and TRAP staining confirmed decreased numbers of MM cells and reduced bone resorption activity in the human bones retrieved from the mice treated with the compound, as compared with the control group (FIG. 22B).

The structures appear in SMILES notation.

As for `C=CC(=O)N1CCCC(n2nc(-c3ccc(Oc4ccccc4)cc3)c3c(N)ncnc32)C1` (stereo not drawn) [Compound 4, 1-(3-(4-amino-3-(4-phenoxyphenyl)-1H-pyrazolo[3,4-d]pyrimidin-1-yl)piperidin-1-yl)prop-2-en-1-one], the “levels twenty four hours post dose” value in data set [1] is given as “below the level of quantitation”.
For the compound `CN(C)C/C=C/C(=O)N1CCCC(n2nc(-c3ccc(Oc4ccccc4)cc3)c3c(N)ncnc32)C1` (stereo not drawn) [Compound 15, (E)-1-(3-(4-amino-3-(4-phenoxyphenyl)-1H-pyrazolo[3,4-d]pyrimidin-1-yl)piperidin-1-yl)-4-(dimethylamino)but-2-en-1-one], the half-inhibitory concentration (IC50) in data set [2] worked out at 36 nM.
In the case of `C=CC(=O)N1CCC[C@@H](n2nc(-c3ccc(Oc4ccccc4)cc3)c3c(N)ncnc32)C1` [PCI-32765], the “numbers of mature OC, treated versus normal OC cultures” value in data set [3] (human OC precursor cells on glass cover slips) is “Significantly reduced numbers of mature OC”. Besides, in data set [3] (human OCs on glass cover slips, p<0.01), the “spreading area per cell and number of nuclei per OC” value is reported as “expanded spreading area per cell”. In addition, the “MM-induced osteolysis / bone lysis in implanted human bone” value in data set [4] (micro-CT) is “significantly reduced osteolysis”. In data set [4] (p<0.01), the “osteogenic activity (ALP expression, ALP+/BS) in implanted human bone” value was “enhanced osteogenic activity”.

Broadly, the IC50 is the concentration that gives 50% inhibition.
